Experimental data taken from patent publication US6586365B2, “Method for reducing pest damage to corn by treating transgenic corn seeds with clothianidin pesticide” (priority 2000, dated 2003).
Where two headings read alike, the source gives them in different places.

Test system: western and northern corn root worm
Assay type: in vivo, corn rootworm
Conditions: for PERCENT OF CONTROL (3-6 damage level) / PERCENT OF CONTROL (4-6 damage level) / PERCENT OF CONTROL (5-6 damage level) / PERCENT PLANTS HAVING 3-6 DAMAGE LEVEL / PERCENT PLANTS HAVING 4-6 DAMAGE LEVEL / PERCENT PLANTS HAVING 5-6 DAMAGE LEVEL: Iowa 1-6 Scale; for Corn root worm damage (Iowa 1-6 scale), means across locations / Corn root worm damage in each Iowa class (Iowa 1-6 scale): class 1 / Corn root worm damage in each Iowa class (Iowa 1-6 scale): class 2 / Corn root worm damage in each Iowa class (Iowa 1-6 scale): class 3 / Corn root worm damage in each Iowa class (Iowa 1-6 scale): class 4 / Corn root worm damage in each Iowa class (Iowa 1-6 scale): class 5 / Corn root worm damage in each Iowa class (Iowa 1-6 scale): class 6: stage VT-R1
Method: Corn seeds of the same hybrid species, with and without the transgenic event, were treated with clothianidin pesticide as follows. A seed treatment formulation was prepared by mixing a measured amount of clothianidin in water as a carrier and applying the formulation for one minute at room temperature to a measured weight of corn seed in a rotostatic seed treater. The respective weights of the pesticide preparation and the corn seed were calculated to provide the desired rate of treatment of pesticide on the seed. The pesticide was mixed into sufficient water to permit efficient distribution of the formulation to all of the seeds in the batch while minimizing loss of treatment formulation due to lack of uptake of the formulation by the seeds. Treated seeds were allowed to sit uncapped for at least four hours before planting.
A field trial was run in accordance with pertinent protocols and in conformance with USDA notification requirements. The purpose of the trial was to determine the efficacy of transgenic event Cry3Bb.11231 in corn seed in combination with corn rootworm seed treatments using clothianidin.
For each growing site that was selected, the plot design included the following:
The following seed treatment combinations were used for each growing area:
All seed treatments with pesticides were carried out as described in Example 1.
For seeds having treatments numbered 3 though 7, the pesticides were applied by the methods described in Example 1. In seed treatment number 8, commercially available Force® 3G was applied to the soil in a 5″ band at the time of sowing. The levels of application are as shown and are within the ranges recommended for standard commercial practice.
Corn seeds to be tested were planted and grown at five different locations across two Midwestern states in the United States corn belt according to the protocol described above.
The determination of damage by corn rootworm was made according to the following protocol. At stage VT-R1, an evaluation of corn rootworm damage was carried out by methods that are well known in the industry, and damage by corn rootworm was reported according to the Iowa 1-6 rating system. In that system, the root systems of 10 corn plants per plot are recovered and scored using the 1-6 rating scale, where: 1=no injury or only a few minor feeding scars, 2=feeding injury evident, but no roots eaten back to 1 ½ inches of the plant, 3=at least one root eaten off to within 1 ½ inches of the plant, but never an entire node of roots destroyed, 4=one node of roots eaten back to within 1 ½ inches of the plant, 5=two nodes (circles) of roots eaten back to within 1 ½ inches of the plant, 6=three nodes (circles) of roots eaten back to within 1 ½ inches of the plant.
The combinations of clothianidin seed treatment with corn seed having a Cry3Bb.11231 transgenic event were tested for possible synergy at three levels of rootworm damage. In the first test, shown in Table 2(a), the percentage of test plants having damage levels of from 3 to 6, on the Iowa 1-6 Scale, were determined for the control and for seeds treated with the pesticide at two levels, and for seeds having the transgenic event, alone and in combination. The following formula was then used to calculate a “synergy threshold”:
(% of control Cry3Bb.11231)*(% of control clothianidin treatment)/100.
This threshold was compared against the percent of control for the treatment combinations (i.e., Cry3Bb.11231 with clothianidin @ 100 gm/100 kg and Cry3Bb.11231 with clothianidin @ 300 gm/100 kg). If the treatment combination percent of control was below the threshold, then it was concluded that there was synergy.

[1] = clothianidin seed treatment @ 100 g/100 kg seed
[2] = clothianidin seed treatment @ 300 g/100 kg seed
[3] = clothianidin seed treatment @ 400 g/100 kg seed

CN/C(=N\[N+](=O)[O-])NCc1cnc(Cl)s1 [Clothianidin, N-[(2-chloro-5-thiazoyl)methyl]-N′-methyl-N″-nitro,[C(E)]-(9Cl)-guanidine]
PERCENT OF CONTROL (3-6 damage level) (clothianidin @ 100 gm/100 kg): 96.6% | PERCENT OF CONTROL (4-6 damage level) (clothianidin @ 100 gm/100 kg): 86.9% | PERCENT OF CONTROL (5-6 damage level) (clothianidin @ 100 gm/100 kg): 39.4% | PERCENT PLANTS HAVING 3-6 DAMAGE LEVEL (clothianidin @ 100 gm/100 kg): 96.6% | PERCENT PLANTS HAVING 4-6 DAMAGE LEVEL (clothianidin @ 100 gm/100 kg): 71.2% | PERCENT PLANTS HAVING 5-6 DAMAGE LEVEL (clothianidin @ 100 gm/100 kg): 15.8% | PERCENT OF CONTROL (3-6 damage level) (clothianidin @ 300 gm/100 kg): 91.5% | PERCENT OF CONTROL (4-6 damage level) (clothianidin @ 300 gm/100 kg): 50.65% | PERCENT OF CONTROL (5-6 damage level) (clothianidin @ 300 gm/100 kg): 23.9% | PERCENT PLANTS HAVING 3-6 DAMAGE LEVEL (clothianidin @ 300 gm/100 kg): 91.5% | PERCENT PLANTS HAVING 4-6 DAMAGE LEVEL (clothianidin @ 300 gm/100 kg): 41.5% | PERCENT PLANTS HAVING 5-6 DAMAGE LEVEL (clothianidin @ 300 gm/100 kg): 9.6% | Corn root worm damage (Iowa 1-6 scale), means across locations [1]: 3.9 | Corn root worm damage in each Iowa class (Iowa 1-6 scale): class 1 [1]: 0 | Corn root worm damage in each Iowa class (Iowa 1-6 scale): class 2 [1]: 6 | Corn root worm damage in each Iowa class (Iowa 1-6 scale): class 3 [1]: 45 | Corn root worm damage in each Iowa class (Iowa 1-6 scale): class 4 [1]: 98 | Corn root worm damage in each Iowa class (Iowa 1-6 scale): class 5 [1]: 23 | Corn root worm damage in each Iowa class (Iowa 1-6 scale): class 6 [1]: 5 | Corn root worm damage (Iowa 1-6 scale), means across locations [2]: 3.4 | Corn root worm damage in each Iowa class (Iowa 1-6 scale): class 1 [2]: 0 | Corn root worm damage in each Iowa class (Iowa 1-6 scale): class 2 [2]: 16 | Corn root worm damage in each Iowa class (Iowa 1-6 scale): class 3 [2]: 94 | Corn root worm damage in each Iowa class (Iowa 1-6 scale): class 4 [2]: 60 | Corn root worm damage in each Iowa class (Iowa 1-6 scale): class 5 [2]: 16 | Corn root worm damage in each Iowa class (Iowa 1-6 scale): class 6 [2]: 2 | Corn root worm damage (Iowa 1-6 scale), means across locations [3]: 3.0 | Corn root worm damage in each Iowa class (Iowa 1-6 scale): class 1 [3]: 1 | Corn root worm damage in each Iowa class (Iowa 1-6 scale): class 2 [3]: 34 | Corn root worm damage in each Iowa class (Iowa 1-6 scale): class 3 [3]: 113 | Corn root worm damage in each Iowa class (Iowa 1-6 scale): class 4 [3]: 37 | Corn root worm damage in each Iowa class (Iowa 1-6 scale): class 5 [3]: 1 | Corn root worm damage in each Iowa class (Iowa 1-6 scale): class 6 [3]: 0 | effectiveness against corn rootworm damage (in words) (seed treatment alone, all levels tested (100, 300, 400 gm/100 kg)): effective against corn rootworm damage at all levels tested
